From patent US20080280764A1, “Method of Desiccating and/or Defoliating Glyphosate Resistant Crops” (priority 2005, published 2008)

Test system: Glyphosate resistant cotton
Experiment: Field test: defoliation and desiccation of glyphosate resistant cotton
Assay type: in vivo
Conditions: post-emergence spray, scale 0-100% vs untreated plots
Protocol: In the examples below, the value E which is to be expected if the activity of the individual compounds is just additive was calculated using the method of S. R. Colby (1967) “Calculating synergistic and antagonistic responses of herbicide combinations”, Weeds 15, p. 22 ff.
where X=effect in percent using active compound A at an application rate a; Y=effect in percent using active compound B at an application rate b; E=expected effect (in %) of A+B at application rates a+b.
If the experimentally determined value is higher than the value E calculated according to Colby's equation, a synergistic effect is present.
The phenyluracils I and/or the other active ingredients according to the present invention were formulated in a suitable way, either separately or in mixture, e.g. as emulsifiable concentrates (EC), soluble concentrates (SL), suspo-emulsions (SE), suspension concentrates (SC) or water-dispersible granules (WG). The formulation(s) were suspended or emulsified in water as a distribution medium immediately prior to spraying. Afterwards, the aqueous mixture was evenly sprayed on the test plots by means of finely distributing nozzles.
The test plots of rows of fully mature crop plants at the beginning of leaf fall were of uniform size (typically between 14 and 37 square meters, each) and the distribution of treated and untreated plots was organized according to a randomised bloc design. The plots were treated post-emergence, i.e. the aqueous mixture as described above was sprayed on the crop plants.
The evaluation of the defoliation or desiccation caused by the phenyluracils I and/or the other active ingredients according to the present invention was carried out using a scale from 0 to 100%, compared to the untreated control plots. Here, 0 means no defoliation or desiccation and 100 means complete defoliation of the crop plants, or complete desiccation of the leaves of the crop plant.
Defoliation and Desiccation of Glyphosate Resistant Cotton by the Phenyluracil 1.7 Alone as Well as by a Mixture of the Phenyluracil 1.7 and Glyphosate; Field Test
In this example, glyphosate (isopropylammonium salt) was formulated as a 360 g/l SL and Phenyluracil 1.7 as a 120 g/l EC. Prior to application, the formulated active ingredients were tank-mixed with an aqueous 140 l/ha spray solution which contained, in addition, 10 g/l of Agridex.

[1] = use rate Phenyluracil I.7 12.5 g/ha

Structure (SMILES) | Glyphosate resistant cotton defoliation at 4 DAT (% defoliation), Found (use rate glyphosate 840 g/ha) [%] | Glyphosate resistant cotton desiccation at 4 DAT (% desiccation), Found (use rate glyphosate 840 g/ha) [%] | Glyphosate resistant cotton defoliation at 4 DAT (% defoliation), Found [1] [%] | Glyphosate resistant cotton desiccation at 4 DAT (% desiccation), Found [1] [%]
O=C(O)CNCP(=O)(O)O [Glyphosate, glyphosate] | 0 | 3 | – | –
CC(C)N(C)S(=O)(=O)NC(=O)c1cc(-n2c(=O)cc(C(F)(F)F)n(C)c2=O)c(F)cc1Cl [I.7] | – | – | 13 | 63
